From the supplement of paper PMC10307832

Key:
Assay in all cases: relative viability (nuclei count vs DMSO), 5 days (fraction); higher = more cells survive
XMD13-2 + Phenformin = compound: C1CC1C(=O)NC2=NNC3=C2C=CC(=C3)C4=CC(=CC=C4)C(=O)NC5CC5 [XMD13-2] + N=C(N)NC(=N)NCCc1ccccc1 [Phenformin] (partner 250 µM)
Procedure, shortened: (§1)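 A single step with final 0.05% Triton X-100, 1% formaldehyde and 1 ug/ml Hoechst fixed the cells and stained nuclei 5 days after treatment. Lung cancer cell lines in 1536-well plates had been treated by pin tool the day after seeding with one drug alone or a fixed anchor-drug dose plus five library-drug doses (not always all listed) in √10 steps, and nuclei were counted on 4× images. Relative viability is the ratio of nuclei in treated wells to nuclei in vehicle wells, taken as the median of duplicate plates.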

XMD13-2 + Alpelisib = compound: C1CC1C(=O)NC2=NNC3=C2C=CC(=C3)C4=CC(=CC=C4)C(=O)NC5CC5 [XMD13-2] + Cc1nc(NC(=O)N2CCC[C@H]2C(N)=O)sc1-c1ccnc(C(C)(C)C(F)(F)F)c1 [Alpelisib] (partner 2 µM)
Procedure, shortened: as §1

XMD13-2 + Lapatinib = compound: C1CC1C(=O)NC2=NNC3=C2C=CC(=C3)C4=CC(=CC=C4)C(=O)NC5CC5 [XMD13-2] + CS(=O)(=O)CCNCc1ccc(-c2ccc3ncnc(Nc4ccc(OCc5cccc(F)c5)c(Cl)c4)c3c2)o1 [Lapatinib] (partner 2 µM)
Procedure, shortened: as §1

Dasatinib + Trametinib = compound: Cc1nc(Nc2ncc(C(=O)Nc3c(C)cccc3Cl)s2)cc(N2CCN(CCO)CC2)n1 [Dasatinib] + CC(=O)Nc1cccc(-n2c(=O)n(C3CC3)c(=O)c3c(Nc4ccc(I)cc4F)n(C)c(=O)c(C)c32)c1 [Trametinib] (partner 0.02 µM)
Procedure, shortened: as §1

Cell Line UMC-11 has a relative viability (XMD13-2 + Phenformin; first compound 0.05 µM) of 0.362, a relative viability (XMD13-2 + Phenformin; first compound 0.1581 µM) of 0.314 and a relative viability (XMD13-2 + Phenformin; first compound 0.5 µM) of 0.337. For the same cell line, the relative viability (XMD13-2 + Phenformin; first compound 1.581 µM) was 0.317, the relative viability (XMD13-2 + Phenformin; first compound 5 µM) was 0.285 and the relative viability (XMD13-2 + Alpelisib; first compound 0.05 µM) was 1.22. It also gave a relative viability (XMD13-2 + Alpelisib; first compound 0.1581 µM) of 1.07, a relative viability (XMD13-2 + Alpelisib; first compound 0.5 µM) of 0.944 and a relative viability (XMD13-2 + Alpelisib; first compound 1.581 µM) of 0.924. It also gave a relative viability (XMD13-2 + Alpelisib; first compound 5 µM) of 1.13, a relative viability (XMD13-2 + Lapatinib; first compound 0.05 µM) of 1.18 and a relative viability (XMD13-2 + Lapatinib; first compound 0.1581 µM) of 0.856. It also gave a relative viability (XMD13-2 + Lapatinib; first compound 0.5 µM) of 1.01, a relative viability (XMD13-2 + Lapatinib; first compound 1.581 µM) of 0.901 and a relative viability (XMD13-2 + Lapatinib; first compound 5 µM) of 1.08. It also gave a relative viability (Dasatinib + Trametinib; first compound 0.005 µM) of 0.675, a relative viability (Dasatinib + Trametinib; first compound 0.01581 µM) of 0.63 and a relative viability (Dasatinib + Trametinib; first compound 0.05 µM) of 0.631. The relative viability (Dasatinib + Trametinib; first compound 0.1581 µM) was 0.358 and the relative viability (Dasatinib + Trametinib; first compound 0.5 µM) was 0.317.
